Reference: patent publication US8703815B2, “Small molecules that covalently modify transthyretin” (The Scripps Research Institute, priority 2009, dated 2014)
Read-outs that look alike come from different tables or passages of the source.

Key:
[1] = system: IMR-32 cells; assay: Compound cytotoxicity to IMR-32 cells in the absence of WT-TTR; type: cell-based, human
Protocol: Metabolically active cells reduce the resazurin redox dye to resorufin, a soluble fluorescent compound. [O'Brien et al., Eur. J. Biochem. 267:5421-5426 (2002)] The percentage of viable cells was calculated relative to cells treated with vehicle only (cell culture media and DMSO=100% viable).
(§1) The human neuroblastoma IMR-32 cell line (CCL-127 ATCC) was maintained in Opti-MEM® medium (Invitrogen), supplemented with 5% FBS, 1 mM Hepes buffer, 2 mM L-glutamine, 100 units/mL penicillin, 100 μg/mL streptomycin and 0.05 mg/mL CaCl2 (complete cell medium). Cells were seeded in black wall, clear bottom, tissue culture treated 96-well plates (Costar) at a density of 6,000 cells/well in complete cell medium and incubated overnight (about 18 hours) at 37° C.
(§2) Recombinant WT-TTR purified in the cold was used as the cytotoxic insult. The protein was buffer-exchanged in Hanks' Balanced Salt Solution (HBSS, Mediatech, Manassas, Va.) at 10° C. using a Centriprep® filter device (10 kDa MWCO, Millipore). Compounds (16 mM in DMSO) were diluted 1:1000 with WT-TTR (16 μM in HBSS, filter sterilized) or with HBSS only, vortexed and incubated for 18 hours at 37° C. WT-TTR (16 μM in HBSS) containing the same amount of DMSO was prepared in parallel and incubated under the same conditions.
(§3) The medium was removed from the cells and replaced immediately by the TTR/compound mixtures or HBSS previously diluted 1:1 in Opti-MEM® supplemented with 0.8 mg/mL BSA, 2 mM Hepes buffer, 4 mM L-glutamine, 200 units/mL penicillin, 200 μg/mL streptomycin and 0.1 mg/mL CaCl2. The cells were incubated 24 hours at 37° C. Cell viability was evaluated by a resazurin reduction assay.
(§4) Briefly, 10 μL of resazurin (500 μM, PBS) was added to each well and fluorescence quantified in a plate reader (Ex/Em 530/590 nm, Tecan Safire 2, Austria) after 1 hour of incubation at 37° C. Cell viability was calculated as percentage of fluorescence relative to cells treated only with vehicle (100% viability) after subtraction of blank fluorescence (wells without cells). Averages and standard errors from 2 independently performed studies, each performed at least in triplicate, were calculated using GraphPrism (San Diego, Calif., US).

[2] = system: WT-TTR cytotoxicity in human IMR-32 neuroblastoma cells; assay: Inhibition of WT-TTR cytotoxicity in IMR-32 cells (resazurin reduction); type: cell-based; settings: WT-TTR 8 μM, compounds 2, 4, 6 and 8 μM, 24 hours
Protocol: Cell viability was measured after 24 hours by a resazurin reduction assay.
as §1, §2, §3, §4

[3] = molecular target: T1, K15A-TTR (Homo sapiens, UniProt P02766, K35A); assay: RP-HPLC analysis of reaction with K15A-TTR homotetramer; type: binding
T1 construct: composed of 127-residue β-sheet-rich subunits; made in house
From the text: A strictly analogous study performed with the K15A homotetrameric TTR mutant confirmed that K15 was essential for the observed chemoselective reaction between TTR and Compounds […] (FIG. 1A, bottom trace). […] However, it is important to note that Compounds 1-3 were only slightly less chemoselective (<5% reaction with K15A).
The ability of compounds A1 and A2, auxochromic analogs of previously discussed stilbenes [Klabunde et al., Nat. Struct. Biol. 2000, 7, 312-321; Connelly et al., Curr. Opin. Struc. Biol. 2010, 20, 54-62; Johnson et al., J. Med. Chem. 2008, 51, 6348-6358; Choi et al., J. Am. Chem. Soc. 2010, 132, 1359-1370; Choi et al., Nat. Chem. Biol. 2010, 6, 133-139; and Baures et al., Bioorg. Med. Chem. 1998, 6, 1389-1401] to form a chemoselective amide bond with the K15 residue of TTR was assessed by reverse-phase-HPLC and liquid chromatography-mass spectrometry analysis. […] The binding of the covalent modifier A2 to K15A-TTR (in the absence of amide bond conjugation) was confirmed by incubating A2 with K15A-TTR in phosphate buffer (pH 7) followed by K15A immunoisolation using a Sepharose® resin-conjugated anti-TTR polyclonal antibody [Purkey et al., Proc. Natl. Acad. Sci. U.S.A. 2001, 98, 5566-5571].
Recombinant WT-TTR was expressed as described previously [Lashuel et al., Biochemistry 38:13560-13573 (1999)]. For analysis of test compounds with TTR, each compound (1.5 μL in DMSO, 1.44 mM) was added to 300 μL of WT-TTR or K15A mutant TTR (3.6 μM, 10 mM sodium phosphate, 100 mM KCl, 1 mM EDTA, pH 7.0). The samples were vortexed, and incubated for 18 hours at 25° C. Reverse phase high performance liquid chromatography (RP-HPLC) was performed on a Water 600 E multi-solvent delivery system, using a Waters 486 tunable absorbance detector, a 717 autosampler, and a ThermoHypersil Keystone Betabasic-18 column μ150 Å pore size, 3 μm particle size, and mobile phase A; 0.1% TFA in 95% H2O+5% CH3CN and mobile phase B, 0.1% TFA in 95% CH3CN+5% H2O). Linear gradients were run from 100:0 to 0:100 A:B for 27 minutes.

| SMILES | cytotoxicity to IMR-32 cells in the absence of WT-TTR [1] | inhibition of WT-TTR cytotoxicity to IMR-32 cells (in words) [2] | reaction with K15A-TTR (in words) [3] | cytotoxicity to IMR-32 cells in the absence of WT-TTR ([1]; human, IMR-32 neuroblastoma cells, 24 h, 8 µM) |
| --- | --- | --- | --- | --- |
| Cc1cc(/C=C/c2cccc(C(=O)Sc3ccccc3)c2)cc(C)c1O [Compound 2, (E)-S-phenyl 3-(4-hydroxy-3,5-dimethylstyryl)benzothioate] | None of these compounds were cytotoxic to IMR-32 cells | clearly and dose-dependently inhibits IMR-32 cytotoxicity | – | – |
| Cc1cc(/C=C/c2cccc(C(=O)Oc3ccc(F)cc3)c2)cc(C)c1O [Compound 4, (E)-4-fluorophenyl 3-(4-hydroxy-3,5-dimethylstyryl)benzoate] | – | clearly and dose-dependently inhibits IMR-32 cytotoxicity | no reaction could be detected | None of these compounds were cytotoxic to IMR-32 cells |
| Cc1cc(/C=C/c2cc(C(=O)Sc3ccc(F)cc3)cc(N(C)C)c2)cc(C)c1O [Compound A2, (E)-S-4-fluorophenyl 3-(dimethylamino)-5-(4-hydroxy-3,5-dimethylstyryl)-benzothioate] | – | – | no conjugation | – |
